Values of other authors in US12377109B2, “Formulation and noncovalent stabilization of olivetolic acid derivatives” (MINGOWOOD PHARMACAL LLC, priority 2020, dated 2025).
Where two headings read alike, the source gives them in different places.

Tests used:
[1] = for first-order rate constant k for decarboxylation: 100° C.
[2] = test system: MDA-MB-231 human breast cancer cells; settings: MDA-MB-231 cells
[3] = test system: lithium chloride- and cisplatin-induced vomiting; settings: mice and shrews
[4] = 30° C., neat substances and solutions, reviewed studies
[5] = 40° C., neat substances and solutions, reviewed studies

SMILES	half-life [1, 4]	loss ([1]; 40% and 90% ethanol tinctures, 4° C., dark, 6 months, Peschel)	half-life [1, 5]	first-order rate constant k for decarboxylation [1]	pKa	effect on cell migration [2]	time to 10% degradation ([1]; 25° C., extrapolated from Wang's data)	half-life ([1]; 30° C., calculated from Citti et al.) [weeks]	half-life ([1]; 30° C., calculated from Wang et al.) [weeks]	half-life ([1]; 30° C., estimated for the Cerilliant product)	decrease in potency ([1]; 40° C. over 4 weeks, Cerilliant standard solution in acetonitrile) [%]	half-life ([1]; 40° C., from Wang et al. parameters) [weeks]	decay constant ([1]; 80° C., Wang et al.) [s⁻¹]	half-life ([1]; 80° C., Wang's estimate) [h]	half-life ([1]; 80° C., in hemp oil as extracted, Citti et al.)	activation energy of degradation ([1]; Wang et al.) [kcal/mol]	prefactor in the expression for the degradation rate constant ([1]; Wang et al.) [s⁻¹]	activation energy of degradation ([1]; in hemp oil, Citti et al.) [kcal/mol]	prefactor ([1]; in hemp oil, Citti et al.) [L/s]	lowest dose suppressing vomiting [3] [mg/kg]
CCCCCc1cc2c(c(O)c1C(=O)O)[C@@H]1C=C(C)CC[C@H]1C(C)(C)O2 [THCA, (6aR,10aR)-1-hydroxy-6,6,9-trimethyl-3-pentyl-6a,7,8,10a-tetrahydrobenzo[c]chromene-2-carboxylic acid]	about 12 weeks	over 50%	about 4 weeks	4.93×10^−4																
CCCCCc1cc(O)c(C/C=C(\C)CCC=C(C)C)c(O)c1C(=O)O [CBGA, 3-[(2E)-3,7-dimethylocta-2,6-dienyl]-2,4-dihydroxy-6-pentylbenzoic acid]					2.9															
C=C(C)C1CCC(C)=CC1c1c(O)cc(CCCCC)c(C(=O)O)c1O (stereo not drawn) [CBDA, 3-p-mentha-1,8-dien-3-yl-6-pentyl-beta-resorcylic acid]	about 12 weeks		about 4 weeks	4.13×10^−4	3.4	inhibits migration	approximately 3.7 weeks	4.5	11.6	about 12 weeks	69.8	4.06	5.35e-05	3.6	approximately 4.9 hours	27.5	2e+12	21.4	6.9e+08	0.01
